What all share (assay): growth of human tumour cells (NCI), 48 h
The subject of experiment [1] is 786-0.
For experiment [2], the system named is A498.
For experiment [3], the system named is A549.
The subject of experiment [4] is CCRF-CEM.
Experiment [5] deals with COLO 205.
Experiment [6] deals with DU-145.
Experiment [7] concerns HCT-116.
Experiment [8] deals with HCT-15.
In experiment [9] the test system is Hs-578T.
Experiment [10] relates to MDA-MB-435.
In experiment [11] the test system is NCI-H226.
Experiment [12] concerns OVCAR-3.
Experiment [13] concerns PC-3.
Experiment [14] relates to RXF 393.
In experiment [15] the test system is SK-OV-3.
The test system of experiment [16] is SW-620.
For experiment [17], the system named is TK-10.
For experiment [18], the system named is UACC-257.
Experiment [19] deals with UACC-62.
For experiment [20], the system named is NCI-H522.

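Exposure lasted 48 hours, with cells grown in 96-well plates and compounds tested at five concentrations. At the GI50, growth is halved.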 Active and inactive are the calls of the source. No stated cut-off is given here; in the data, active = GI50 up to about 1.1 µM and inactive = higher.

With `O=[N+]([O-])c1ccc(/C=C/c2cc(-c3ccccc3)nc3ccc4ccccc4c23)cc1`, the GI50 in experiment [1], in experiment [2], in experiment [3], in experiment [4], in experiment [5] and in experiment [6] was > 100 µM (inactive) throughout. Also, the GI50 was > 100 µM (inactive) in [7]; greater than 100 µM in experiment [8]; > 100 µM (inactive) in experiment [9]; > 100 µM (inactive) in experiment [10]; > 100 µM (inactive) in experiment [11]; > 100 µM (inactive) in [12]. The GI50 in [13], in experiment [14], in experiment [15], in experiment [16], in [17] and in experiment [18] was > 100 µM (inactive) throughout. The GI50 in experiment [19] is > 100 µM (inactive).

Regarding `C=C1C[C@H](O)[C@H](Br)C(C)(C)C12CCC(C)(Cl)C(Br)C2` (some centres undefined), the GI50 in [1] was 5.48 µM (inactive); in [3] it was 0.566 µM (active); in experiment [4], 0.0359 µM (active); in experiment [5] it was 1.02 µM (active); in [6], 4.84 µM (inactive); in [7] it was 6.38 µM (inactive). Also, the GI50 in [8] is 7.45 µM; in experiment [9] it was 5.2 µM (inactive); in [10], 2.3 µM (inactive); in [11], 2.27 µM (inactive); in experiment [20], 3.83 µM (inactive); in [12], 4.3 µM (inactive). Also, the GI50 in experiment [13] is 0.153 µM (active); in experiment [14], 1.95 µM (inactive); in experiment [15] it was 3.03 µM (inactive); in [16] it was 4.99 µM (inactive); in [17], 3.15 µM (inactive); in [18] it was 0.526 µM (active). Moreover, the GI50 in experiment [19] is 5.85 µM (inactive).

`CN1C(=O)C2(Cc3cn(C45CC67SSC(CO)(C(=O)N6C4Nc4ccccc45)N(C)C7=O)c4ccccc34)SSC1(CO)C(=O)N2C` (centres undefined): the GI50 in experiment [1] was < 0.01 µM (active); in experiment [2], 0.0291 µM (active); in experiment [3] it was 0.172 µM (active); in experiment [4] it was 1.52 µM (inactive); in experiment [5], < 0.01 µM (active); in experiment [6], 0.0261 µM (active). For the same molecule, the GI50 in [7] was 0.0113 µM (active); in [8] it was less than 0.01 µM; in experiment [9], 0.0282 µM (active); in experiment [10], 0.0335 µM (active); in experiment [20], < 0.01 µM (active); in [12], 0.0163 µM (active). In addition, the GI50 in experiment [13] is 0.0478 µM (active); in experiment [15], 0.262 µM (active); in [16] it was 0.0108 µM (active); in experiment [17], 0.0243 µM (active); in experiment [18], 0.0188 µM (active); in experiment [19] it was 0.0239 µM (active).

Take `CCOC(=O)c1nc2ccccc2nc1Oc1ccc(C(=O)OC)cc1`: the GI50 in [1] was > 100 µM (inactive); in [2], > 100 µM (inactive); in [3] it was > 100 µM (inactive); in [4], 41.8 µM (inactive); in experiment [5] it was > 100 µM (inactive); in [6], > 100 µM (inactive). Further, the GI50 in experiment [7] is > 100 µM (inactive); in experiment [8], greater than 100 µM; in experiment [9] it was > 100 µM (inactive); in [10] it was > 100 µM (inactive); in [11], > 100 µM (inactive); in [12] it was > 100 µM (inactive). For the same molecule, the GI50 in experiment [13], in [14], in experiment [15], in [16], in experiment [17] and in experiment [18] was > 100 µM (inactive) each time. Besides, in [19], the GI50 was > 100 µM (inactive).

As to `C#CCn1c(=O)c(C)cn(/C(=C/C(=O)OCC)C(=O)OCC)c1=O`, the GI50 was 2.84 µM (inactive) in experiment [1]; 16 µM (inactive) in [2]; 16.2 µM (inactive) in experiment [3]; 1.04 µM (active) in experiment [4]; 2.38 µM (inactive) in [5]; 10.4 µM (inactive) in [6]. For the same molecule, the GI50 in experiment [7] was 4.67 µM (inactive); in experiment [8], 1.21 µM; in experiment [9], 10.6 µM (inactive); in experiment [10], 6.35 µM (inactive); in [11], 2.19 µM (inactive); in experiment [12] it was 7.16 µM (inactive). Further, the GI50 was 12.6 µM (inactive) in experiment [13]; 0.569 µM (active) in experiment [14]; 21.9 µM (inactive) in experiment [15]; 1.67 µM (inactive) in experiment [16]; 2.01 µM (inactive) in [17]; 14.4 µM (inactive) in [18]. In addition, the GI50 in experiment [19] is 12.2 µM (inactive).

With `CN1CC[C@]23c4c5ccc(O)c4O[C@H]2C(O)CC[C@@]3(O)[C@H]1C5` (some centres undefined), the GI50 in experiment [1], in [2], in experiment [3], in experiment [5], in experiment [6] and in [7] was > 100 µM (inactive) throughout. For the same molecule, the GI50 in [8] was greater than 100 µM; in experiment [9] it was > 100 µM (inactive); in [10], > 100 µM (inactive); in experiment [11], > 100 µM (inactive); in experiment [20], > 100 µM (inactive); in [12], > 100 µM (inactive). The GI50 in experiment [13], in experiment [15], in [16], in experiment [17], in experiment [18] and in experiment [19] was > 100 µM (inactive) in each case.

`CN(C)c1nncc2[nH]cnc12`: the GI50 in experiment [1], in experiment [2], in experiment [3], in experiment [4], in [5] and in [6] was > 100 µM (inactive) throughout. In addition, the GI50 in [7] was > 100 µM (inactive); in experiment [8] it was greater than 100 µM; in experiment [9] it was > 100 µM (inactive); in experiment [10], > 100 µM (inactive); in experiment [11], > 100 µM (inactive); in experiment [12], > 100 µM (inactive). Also, the GI50 in experiment [13], in experiment [14], in experiment [16], in experiment [17], in [18] and in experiment [19] was > 100 µM (inactive) in each case.

As to `CC(C)=CC[C@]12CCN[C@H]1N(S(=O)(=O)c1ccccc1)c1ccccc12`, the GI50 in experiment [1] is 15.6 µM (inactive); in [3] it was 19.9 µM (inactive); in [4], 23.6 µM (inactive); in [5] it was 15.1 µM (inactive); in [6], > 100 µM (inactive); in experiment [7], 14.4 µM (inactive). Besides, the GI50 in experiment [8] was 15.6 µM; in experiment [9], 20.5 µM (inactive); in experiment [10] it was 16.3 µM (inactive); in experiment [11], 14.9 µM (inactive); in [20], 13.9 µM (inactive); in experiment [12], 16.9 µM (inactive). Also, the GI50 in [13] is 13.5 µM (inactive); in experiment [14], 13.5 µM (inactive); in experiment [15], 12.7 µM (inactive); in experiment [16] it was 18.4 µM (inactive); in experiment [17] it was 34.9 µM (inactive); in experiment [18], 17.6 µM (inactive). Further, the GI50 in experiment [19] is 13.2 µM (inactive).

With `N=C(N)NS(=O)(=O)c1ccc(Nc2c3ccccc3nc3c(C(=O)NC(CO)(CO)CO)cccc23)cc1`, the GI50 in [1] is 15.7 µM (inactive); in experiment [2], 19.3 µM (inactive); in experiment [3], 9.66 µM (inactive); in [4] it was 4.63 µM (inactive); in experiment [5], 12.6 µM (inactive); in [6], 32.4 µM (inactive). For the same molecule, the GI50 is 93.8 µM in experiment [8]; 11.2 µM (inactive) in experiment [9]; 24.9 µM (inactive) in experiment [10]; 11.7 µM (inactive) in experiment [20]; 27.5 µM (inactive) in experiment [12]; 32.5 µM (inactive) in experiment [13]. Further, the GI50 in experiment [15] is 22 µM (inactive); in [16], 17.6 µM (inactive); in experiment [17], 47.3 µM (inactive); in experiment [18], > 100 µM (inactive); in experiment [19], 19.5 µM (inactive).

With `Cn1c(=S)[nH]c(N)c(Cc2ccccc2)c1=O`, the GI50 in [1] was > 100 µM (inactive); in [2], 32.1 µM (inactive); in [3], > 100 µM (inactive); in experiment [4] it was > 100 µM (inactive); in experiment [5], > 100 µM (inactive); in experiment [6], > 100 µM (inactive). The GI50 is > 100 µM (inactive) in [7]; 42.9 µM in [8]; 39 µM (inactive) in experiment [9]; > 100 µM (inactive) in [10]; 44.3 µM (inactive) in experiment [11]; > 100 µM (inactive) in experiment [12]. The GI50 in experiment [13] is > 100 µM (inactive); in [14] it was > 100 µM (inactive); in experiment [15] it was > 100 µM (inactive); in [16] it was > 100 µM (inactive); in experiment [17], 81.8 µM (inactive); in experiment [18], > 100 µM (inactive). Besides, in experiment [19], the GI50 is 40.2 µM (inactive).

In the case of `COC(=O)[C@@]12OC[C@]34[C@H]([C@@H](O)[C@@H]1O)[C@@]1(C)CC(=O)C(O)=C(C)[C@@H]1C[C@H]3OC(=O)[C@H](OC(=O)/C=C(\C)C(C)C)[C@@H]24` [BRUCEANTIN], the GI50 in experiment [1] is 0.0292 µM (active); in experiment [2] it was 0.02 µM (active); in experiment [3] it was 0.02 µM (active); in experiment [4], 0.02 µM (active); in [5], 0.0242 µM (active); in experiment [6] it was 0.0142 µM (active). Further, the GI50 is 0.02 µM (active) in experiment [7]; 0.0214 µM in experiment [8]; 0.00553 µM (active) in experiment [9]; 0.0188 µM (active) in experiment [10]; 0.02 µM (active) in [11]; 0.0247 µM (active) in experiment [12]. In addition, the GI50 is 0.016 µM (active) in experiment [13]; 0.0201 µM (active) in experiment [14]; 0.02 µM (active) in experiment [15]; 0.02 µM (active) in [16]; 0.021 µM (active) in experiment [17]; 0.0208 µM (active) in experiment [18]. For the same molecule, the GI50 in [19] was 0.02 µM (active).

(Values after ChEMBL document CHEMBL1201862, “PubChem BioAssay data set” (2004).)
